This note sets out measurements from PubChem BioAssay (NCI).

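A five-concentration, 48-hour dose response in 96-well plates underlies each endpoint, interpolated linearly between surrounding concentrations. At the TGI there is no net growth.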

Test systems include SF-539 CNS; UO-31 renal; PC-3 prostate; SK-MEL-28 melanoma; UACC-257 melanoma; ACHN renal; CAKI-1 renal; COLO 205 colon; NCI-H23 lung; CCRF-CEM leukemia; NCI-H226 lung; RXF 393 renal.
What all share (assay): NCI-60 cell line screen, 48 h

Turning to `Oc1cc(Cl)cc2cc(Br)cnc12`, the TGI in the assay with SF-539 CNS was greater than 100 µM; with UO-31 renal, greater than 72.1 µM; with PC-3 prostate, greater than 100 µM; in the assay on SK-MEL-28 melanoma it was greater than 100 µM; with UACC-257 melanoma it was greater than 23.9 µM; in the assay on ACHN renal, greater than 32.1 µM. Moreover, the TGI with CAKI-1 renal is greater than 27.3 µM; with COLO 205 colon, greater than 100 µM; in the assay on NCI-H23 lung it was greater than 100 µM; in the assay on CCRF-CEM leukemia, 9.51 µM; with NCI-H226 lung it was greater than 88.5 µM; in the assay on RXF 393 renal, 19.2 µM.

As to `COC(=O)NCCc1[nH]nc2c1C(=O)C=C(OC)C2=O`, the TGI in the assay on SF-539 CNS was 33.5 µM; with UO-31 renal it was 50.1 µM; in the assay on PC-3 prostate, 95.8 µM; in the assay with SK-MEL-28 melanoma, 35.3 µM; in the assay with UACC-257 melanoma, 28.3 µM; in the assay on ACHN renal, 37 µM. The TGI came to 45.5 µM with CAKI-1 renal; 52.8 µM in the assay on COLO 205 colon; 44.4 µM in the assay on NCI-H23 lung; 45.8 µM in the assay with CCRF-CEM leukemia; 50.5 µM in the assay with NCI-H226 lung; 31.4 µM in the assay on RXF 393 renal.

In the case of `N[C@@H]1c2c(Br)sc(Br)c2[C@H](O)[C@@H]1O`, the TGI in the assay with SF-539 CNS, in the assay with UO-31 renal, in the assay with PC-3 prostate, in the assay with SK-MEL-28 melanoma, with UACC-257 melanoma and in the assay on ACHN renal was greater than 100 µM in each case. The TGI in the assay with CAKI-1 renal, in the assay on COLO 205 colon, with NCI-H23 lung, in the assay on CCRF-CEM leukemia, in the assay on NCI-H226 lung and in the assay on RXF 393 renal was greater than 100 µM each time.

For the molecule `COc1ccc(-c2cc(-c3ccc(Nc4ccnc5cc(C(F)(F)F)ccc45)cc3)[nH]c(=O)c2C#N)c2ccccc12`, the TGI with SF-539 CNS is greater than 53.7 µM; with UO-31 renal, greater than 65.9 µM; in the assay on PC-3 prostate it was greater than 100 µM; with SK-MEL-28 melanoma, greater than 100 µM; in the assay with UACC-257 melanoma, greater than 100 µM; in the assay on ACHN renal, greater than 81.5 µM. Further, the TGI with CAKI-1 renal was greater than 100 µM; with COLO 205 colon, greater than 58.4 µM; in the assay with NCI-H23 lung it was greater than 100 µM; with CCRF-CEM leukemia it was greater than 56.8 µM; in the assay on NCI-H226 lung it was greater than 100 µM; in the assay with RXF 393 renal, 46.1 µM.

On to `COC1(OC)N=C(N)C2(C#N)C(C)CC(=O)N(N(C)C)C12C#N` (centres undefined), for which the TGI in the assay with SF-539 CNS, in the assay on UO-31 renal, in the assay with PC-3 prostate, in the assay with SK-MEL-28 melanoma, in the assay with UACC-257 melanoma and in the assay with ACHN renal was greater than 100 µM each time. Also, the TGI with CAKI-1 renal, with COLO 205 colon, with NCI-H23 lung, with CCRF-CEM leukemia, in the assay on NCI-H226 lung and with RXF 393 renal was greater than 100 µM throughout.

With `C=CCN1C(=O)/C(=C/c2ccc(C)cc2)N=C1SC/C=C/C`, the TGI in the assay with SF-539 CNS, in the assay with UO-31 renal, with PC-3 prostate, with SK-MEL-28 melanoma, in the assay with UACC-257 melanoma and in the assay on ACHN renal was greater than 100 µM in each case. Also, the TGI in the assay with CAKI-1 renal was greater than 100 µM; in the assay with COLO 205 colon, 90.5 µM; with NCI-H23 lung, greater than 100 µM; in the assay with CCRF-CEM leukemia, greater than 100 µM; in the assay on NCI-H226 lung, greater than 100 µM; in the assay on RXF 393 renal, 46.8 µM.

For the molecule `CCC(=O)OCc1ccc2oc(=O)c(C(=O)Oc3cncc(Cl)c3)cc2c1`, the TGI in the assay on SF-539 CNS, in the assay with UO-31 renal, in the assay with PC-3 prostate, with SK-MEL-28 melanoma, with UACC-257 melanoma and with ACHN renal was greater than 100 µM each time. The TGI in the assay on CAKI-1 renal is greater than 100 µM; in the assay on COLO 205 colon, greater than 100 µM; in the assay on NCI-H23 lung, greater than 100 µM; in the assay with CCRF-CEM leukemia it was 24.8 µM; in the assay on NCI-H226 lung it was greater than 100 µM; in the assay with RXF 393 renal, greater than 100 µM.

In the case of `Cn1c(N2CCCC2)c(C=O)c(=O)n(C)c1=O`, the TGI in the assay on SF-539 CNS, in the assay on UO-31 renal, in the assay with PC-3 prostate, with SK-MEL-28 melanoma, in the assay on UACC-257 melanoma and in the assay with ACHN renal was greater than 100 µM in each case. The TGI with CAKI-1 renal, in the assay with COLO 205 colon, in the assay on NCI-H23 lung, in the assay on CCRF-CEM leukemia, in the assay with NCI-H226 lung and in the assay with RXF 393 renal was greater than 100 µM each time.

Turning to `O=C(CCCCCCCCC(=O)NN1C(=O)/C(=C\c2ccc(O)c(O)c2)SC1c1c(O)ccc2ccccc12)NN1C(=O)C(=Cc2ccc(O)c(O)c2)SC1c1c(O)ccc2ccccc12` (centres undefined), the TGI in the assay with SF-539 CNS was 97.2 µM; in the assay on UO-31 renal, 26.8 µM; with PC-3 prostate, greater than 100 µM; in the assay on SK-MEL-28 melanoma, greater than 100 µM; with UACC-257 melanoma it was greater than 92.7 µM; in the assay with ACHN renal it was greater than 100 µM. Also, the TGI with CAKI-1 renal was greater than 100 µM; in the assay with COLO 205 colon, 73.5 µM; with NCI-H23 lung, 95.1 µM; with CCRF-CEM leukemia, 6.32 µM; in the assay on NCI-H226 lung, greater than 100 µM; in the assay with RXF 393 renal, greater than 57.6 µM.

In the case of `Cc1cc(C)c2c(n1)S(=O)(=O)N(CCCN1CCN(c3cccc(C(F)(F)F)c3)CC1)/C(=C(\O)c1ccccc1)C2=O`, the TGI in the assay on SF-539 CNS is 98.7 µM; with UO-31 renal it was 52.7 µM; with PC-3 prostate it was greater than 100 µM; in the assay with SK-MEL-28 melanoma, 57.5 µM; in the assay on UACC-257 melanoma, 32.4 µM; in the assay on ACHN renal it was greater than 100 µM. Besides, the TGI in the assay on CAKI-1 renal is 11.9 µM; in the assay on COLO 205 colon it was 14.7 µM; in the assay with NCI-H23 lung, 21.7 µM; with CCRF-CEM leukemia it was greater than 100 µM; in the assay on NCI-H226 lung, 7.92 µM; in the assay on RXF 393 renal it was 20.9 µM.

As for `CC1(C)OCC2OC3([C@H](O)CCO)OC(C)(C)OC3C2O1` (some centres undefined), the TGI in the assay on SF-539 CNS, in the assay with UO-31 renal, in the assay with PC-3 prostate, in the assay on SK-MEL-28 melanoma, in the assay on UACC-257 melanoma and in the assay on ACHN renal was greater than 100 µM in each case. Also, the TGI with CAKI-1 renal, in the assay with COLO 205 colon, in the assay on NCI-H23 lung, in the assay on CCRF-CEM leukemia, in the assay on NCI-H226 lung and with RXF 393 renal was greater than 100 µM each time.

Consider `Oc1ccc2c(c1)OCC(O)(c1ccccc1O)C2` (centres undefined), for which the TGI in the assay with SF-539 CNS, with UO-31 renal, in the assay with PC-3 prostate, in the assay with SK-MEL-28 melanoma, in the assay with UACC-257 melanoma and in the assay with ACHN renal was greater than 100 µM throughout. In addition, the TGI in the assay with CAKI-1 renal, in the assay with COLO 205 colon, in the assay with NCI-H23 lung, with CCRF-CEM leukemia, in the assay with NCI-H226 lung and with RXF 393 renal was greater than 100 µM each time.
